Tests used:
mouse melanoma(B16 cell) [1] = experiment: Melanin synthesis rate per unit cell (Abs 475/260 nm); format: cell-based; conditions: VC 1 mM addition (positive control), control = 100
Source text: (§1) • Cell: mouse melanoma(B16 cell) • Chemical luminescentbody: Normal type • Blue fluorescent light, orange fluorescent light, red fluorescent light, green fluorescent light, and yellow fluorescent light • High intensity type • Orange fluorescent light, red fluorescent light, and green fluorescent light (Produced by OmniGlow Japan Co., Ltd.) Assay: • 1. Seeded B16 cell to 24 well plate with […], MEM·10% S(+)·glucosamine culture medium. n=8 • 2. After culturing 5 days, it was transferred to MEM·10% S(+)·theophyline culture medium. • 3. Exposed to fluorescent light by placing the chemical luminescent body in contact with the plate for 4 hr. in the case of normal type and for 30 min. in the case of high intensity type. The control was under no exposure to fluorescent light and the positive control was in the 1 mMVC (Ascorbic acid) addition system. • 4. The cell was recovered three days after the start of exposure, dissolved into 0.1% DS normal saline solution, and then the optical density was measured at 260 nm (index of the amount of cell) and at 475 nm (index of the amount of melanin), and then the cell proliferation rate and the melanin synthesis rate per unit cell was calculated. • The B16 cell proliferation rate is shown in Table 4 and FIG. 7, and the melanin synthesis rate per unit cell is shown in Table 5 and FIG. 8. […]

mouse melanoma(B16 cell) [2] = experiment: B16 cell proliferation rate (Abs 260 nm); format: cell-based; conditions: VC 1 mM addition (positive control); control = 100
Source text: as §1

[3] = test system: Normal human skin fibroblast (NHF); experiment: Cell proliferation, MTT assay (Example 1); format: cell-based; conditions: fluorescence 4 hrs, 100 mM PMG as positive control, vs untreated control
Protocol: The test was performed in the procedure described below: • 1. Cell: Normal human skin fibroblast (NHF) • 2. Chemical fluorescent body: CYALUME Light shape blue, orange and red Seller: OmniGlow Japan Co., Ltd. • 3. Assay: • (1) Seeded NHF to 24 well plate with 2.0×10^4 cells/well, DMEM·10% S(+) • (2) After confluent state is observed by culturing 5 days, it was transferred to non-color and non-blood-serum DMEM. • (3) Exposed to fluorescence (4 hrs.). 100 mM PMG additive system was used as the positive control. • (4) Observed the appearance of the cell (×40) • (5) The quantitative measurement of cell proliferation was made by using MTT assay and by means of colorimetric test with wavelengths of 540 nm for measurement and 655 nm for control. The cell proliferation rate was calculated by using the formula described below, setting the untreated control as 100%. • 4. Calculation formula Cell proliferation rate=([Sample addition OD(540 nm)]−[Sample addition OD(655 nm)])/([Control OD(540 nm)]−[Control OD(655 nm)])×100

Fibroblast(NHF) [4] = experiment: Collagen synthesis rate, PIP kit per MTT (Example 5); format: cell-based, human; conditions: PMG 100 mM (positive control); per unit cell; control = 100
Protocol: (§2) • Cell:Fibroblast(NHF) • Chemical luminescence body (produced by OmniGlow Japan Co., Ltd.) • Normal type red (red fluorescent light) • High intensity orange (orange fluorescent light) • Collagen measurement kit: The amount of propeptide at the end of I type collagen C (PIP) is measured by Takara PIP kit. Assay: • (1)NHF is seeded at 2.0×10^4 to 24 well plate with DMEM·10% S(+). • (2) After confluent state is observed by culturing 5 days, it was transferred to non-color and non-blood-serum DMEM. • (3) Fluorescent light is allowed to irradiate (30 min.) by placing the chemical luminescent body in direct contact with 24 well plate. 100 mM PMG(phosphoric acid-L-magnesium ascorbate) addition system was prepared as the positive control. • (4) After 24 hours from the start of irradiation, the upper layer of the medium is recovered. • The amount of propeptide at the end of I type collagen C (PIP) is measured by Tatara PIP kit and then the calorimetric determination of cell proliferation is made by using MTT assay at observation wavelength of 540 nm and at reference wavelength of 655 nm. The cell proliferation rate is calculated by the formula below by setting the control of non-treated group as 100%. […]

Fibroblast(NHF) [5] = experiment: Fibroblast proliferation, MTT assay (Example 5); format: cell-based, human; conditions: PMG 100 mM (positive control); 24 hours
Protocol: as §2

Molecule	Melanin synthesis rate (%) (mouse melanoma(B16 cell) [1])	B16 cell proliferation rate (%) (mouse melanoma(B16 cell) [2])	cell proliferation [3]	Collagen synthesis rate (%) (Fibroblast(NHF) [4])	Fibroblast proliferation rate (%) (Fibroblast(NHF) [5])
O=C1O[C@H]([C@@H](O)CO)C(O)=C1O [VC, Ascorbic acid]	65.28	21.42	–	–	–
phosphoric acid-L-magnesium ascorbate [PMG]	–	–	significantly promoted	127.6	138.2

From patent US20070172439A1, “Method of chemiluminescence-utilizing makeup and beautification, luminant for skin irradiation beautification and makeup/beautification equipment” (priority 2004, published 2007)
